Like-named read-outs stand apart in the source and are kept apart here.
Key:
[1] = test system: MCF-7 human breast cancer cells; assay: MTT cell viability, MCF-7; assay type: cell-based; conditions: mean ± SD
Experimental: (§1) The six cell lines used in this work (MCF-7, MDA-MB-231, HeLa, […], MCF-10A and Hek-293) were purchased from American Type Culture Collection (ATCC, Manassas, VA, USA). MCF-7 human breast cancer cells, estrogen receptor (ER)-positive, were maintained in Dulbecco’s modified Eagle’s medium/nutrient mixture Ham F-12 (DMEM/F12), supplemented with 10% fetal bovine serum (FBS) and 100 U mL^−1 penicillin/streptomycin. MCF-10A human mammary epithelial cells, were cultured in DMEM/F12 medium, supplemented with 5% horse serum (HS, Thermo Fisher Scientific, Milan, Italy), 100 U mL^−1 penicillin/streptomycin, […] hydrocortisone, 20 ng mL^−1 human epidermal growth factor (hEGF), […] insulin, and […] cholera enterotoxin (Sigma–Aldrich, Milan, Italy). MDA-MB-231 human breast cancer cells, known as triple-negative cells (i.e., not overexpressing human epidermal growth factor receptor 2 (HER2), estrogen and progesterone receptors), were cultured in DMEM/F12 supplemented with 5% FBS, 1% L-glutamine and 100 U mL^−1 penicillin/streptomycin. HeLa human epithelial cervix carcinoma cells, estrogen receptor (ER)-negative, and […] human endometrial adenocarcinoma cells, estrogen receptor (ER)-positive, were maintained in minimum essential Eagle’s Medium (MEM), supplemented with 10% FBS, 1% L-glutamine, 100 U mL^−1 penicillin/streptomycin and 1% Non-Essential Amino Acids (NEAA). Hek-293 human embryonic kidney epithelial cells were cultured in DMEM high glucose (4.5 g L^−1), supplemented with 10% FBS, 1% L-glutamine and 100 U mL^–1 penicillin/streptomycin. Cells were maintained at 37 °C in a humidified atmosphere of 95% air and 5% CO2 and periodically screened for contamination.
(§2) Cell viability has been determined using the 3-(4,5-dimethylthiazol-2-y1)-2,5-diphenyltetrazolium bromide (MTT, Sigma–Aldrich, Milan, Italy) assay. Cells have been seeded on 48-well plates and grown in complete medium. Before being treated, cells have been starved in serum free medium for 24 h for allowing cell cycle synchronization. […] Data are representative of three independent experiments; standard deviations (SD) have been shown.

[2] = test system: MDA-MB-231 human breast cancer cells; assay: MTT cell viability, MDA-MB-231; assay type: cell-based; conditions: mean ± SD
Experimental: as §1, §2

[3] = test system: HeLa human epithelial cervix carcinoma cells; assay: MTT cell viability, HeLa; assay type: cell-based; conditions: 72 h, mean ± SD
Experimental: as §1, §2

[4] = test system: ISHIKAWA human endometrial adenocarcinoma cells; assay: MTT cell viability, […]; assay type: cell-based; conditions: 72 h, mean ± SD
Experimental: as §1, §2

[5] = test system: MCF-10A human mammary epithelial cells; assay: MTT cell viability, normal MCF-10A; assay type: cell-based; conditions: 72 h, mean ± SD
Experimental: as §1, §2

[6] = test system: Hek-293 human embryonic kidney epithelial cells; assay: MTT cell viability, normal Hek-293; assay type: cell-based; conditions: for IC50: normal cells, MTT, 72 h, mean ± SD, read-out: IC50 Hek-293
Experimental: as §1, §2

MDA-MB-231 cells [7] = assay: Detection of intracellular ROS (DCF-DA); assay type: cell-based, human; conditions: fluorescence microscopy
Experimental: We used 2,7-dichlorofluorescin diacetate (DCF-DA) as a fluorometric probe for ROS detection and their production was examined under an inverted fluorescence microscope, as already reported.
Cells were grown on glass coverslips until the treatment with compound or menadione (used as positive control) (Sigma–Aldrich, Milan, Italy). Then, cells were incubated with 10 μM 2′-7′-Dichlorofluorescein diacetate (Sigma–Aldrich, Milan, Italy) for 40 min at 37 °C in a 5% CO2 incubator, as previously described. Then, DAPI (0.2 μg mL^−1) counterstain was performed for 10 min at room temperature, in the dark. Cells were then washed three times with cold PBS, adding one drop of mounting solution, then they were observed and imaged under a fluorescence microscope (Leica DM6000; 20× magnification) with excitation/emission wavelength maxima of 490 nm/515 nm (DCF) or 350 nm/460 nm (DAPI). Images are representative of three independent experiments.
Images were acquired at 20× magnification. […] Fields are representative of three separate experiments.

tubulin = assay: In vitro tubulin-polymerization assay (turbidity at 350 nm); assay type: biochemical; conditions: 10 µM; for final optical density value at 350 nm (OD350): vehicle (DMSO) about 0.43
Experimental: Tubulin-polymerization inihibition was measured using in vitro Tubulin-Polymerization Assay Kit purchased fromEMD Millipore Corporation. Polymerization reactions occur in 70 µL final volumes, of which 60 µL is the 60 µM tubulin in 1 × PB-GTP and 10 µL is the test substance dissolved in 1 × PB-GTP. […] These reactives were combined in 96-well plate on ice. After the plate was transferred into the spectrophotometer pre-warmed at 37 °C and the turbidity variation was measured every 30 s at 350 nm for 90 min. The plate was shaked for 10 s before each measurement. Turbidity (absorbance) readings were used to calculate the extent of polymerization [% inhibition = (1−A350 sample/A350 control) × 100].
Figure 4 Tubulin-polymerization assay. […] Two positive control molecules, Paclitaxel and Vinblastine, were used as tubulin-stabilizing and tubulin-destabilizing agents, respectively. DMSO was used as a negative control. Assembly of tubulin into microtubules was determined by measuring the turbidity at 350 nm for 3600 s at 37 °C. All the compounds were used at a concentration of 10 μM.

MDA-MB-231 cells [8] = assay: Immunofluorescence of microtubules, MDA-MB-231; assay type: cell-based, human; conditions: at IC50 value, 24 h
Experimental: (§3) Cells were grown on glass coverslips in full media, then serum-deprived for 24 h and exposed to compounds for 24 h (concentration equal to its IC50 value). Then, the cells after PBS-washed, were fixed with cold methanol (15 min/−20 °C) and incubated with primary antibody, diluted in blocking solution (4 °C/overnight), as previously described. The mouse anti-β-Actin (69879) and the rabbit anti-β tubulin (9104) were purchased from Santa Cruz Biotechnology and used at 1:100 dilution. Coverslips were then washed 3 times with PBS, then fixed cells were incubated with the secondary antibody Alexa Fluor® 568 conjugate goat-anti-mouse and Alexa Fluor® 488 conjugate goat-anti-rabbit (1:500, Thermo Fisher Scientific, Waltham, MA, USA). Nuclei were stained using DAPI (Sigma–Aldrich, Mila, Italy) for 10 min at a concentration of 0.2 μg/mL then washed 3 times with PBS. Fluorescence was detected using a fluorescence microscope (Leica DM 6000). LAS-X software was used to acquire and process all images.
Figure 5 Immunofluorescence studies. […] Panels A: DAPI, excitation/emission wavelength 350 nm/460 nm; panels B: β-tubulin (Alexa Fluor® 488) excitation/emission wavelength 490 nm/515 nm; panels C show a merge. Representative fields are shown.

HeLa cells = assay: Immunofluorescence of microtubules, HeLa; assay type: cell-based, human; conditions: at IC50 value, 24 h
Experimental: as §3
Figure 6 Immunofluorescence studies. HeLa cells were treated with AuL4, Vinblastine, Paclitaxel (used at their IC50 values) or with a vehicle (CTRL) for 24 h. After treatment, the cells were methanol fixed, incubated with primary and secondary antibodies, stained with DAPI and observed and imaged under the inverted fluorescence microscope at 20× magnification (see Materials and methods). […] Panels A: DAPI, excitation/emission wavelength 350 nm/460 nm; panels B: β-tubulin (Alexa Fluor® 488) excitation/emission wavelength 490 nm/515 nm; panels C show a merge. Representative fields are shown.

| IC50 ([1]; 72 h) [µM] | IC50 [3] [µM] | IC50 [4] [µM] | Compound | IC50 ([2]; 72 h) [µM] | IC50 [5] [µM] | IC50 [6] [µM] | other results |
| --- | --- | --- | --- | --- | --- | --- | --- |
| 29.7 ± 0.3 | 47.7 ± 0.4 | 26.7 ± 0.5 | OC(Cn1cc[n+](CC(O)c2ccccc2)[c]1[Ag-][c]1n(CC(O)c2ccccc2)cc[n+]1CC(O)c1ccccc1)c1ccccc1.[I][Ag-][I] (mixture of isomers) [AgL6] | 57.9 ± 0.5 | 143.4 ± 0.8 | > 200 |  |
|  |  |  | C[n+]1ccn(CC(O)c2ccccc2)[c]1[Ag-][c]1n(CC(O)c2ccccc2)cc[n+]1C.[I][Ag-][I] (racemic) [AgL3] |  |  |  | IC50 MDA-MB-231 ([2]; 72 h): completely inactive |
| 10.5 ± 0.8 | 9.76 ± 0.6 | 6.55 ± 0.9 | C[n+]1c(Cl)c(Cl)n(CC(O)c2ccccc2)[c]1[Ag-][c]1n(CC(O)c2ccccc2)c(Cl)c(Cl)[n+]1C.[I][Ag-][I] (racemic) [AgL7, bis-[4,5-dichloro-(N-methyl-N’(2-hydroxy-2-phenyl)ethyl-imidazole-2-ylidene]silver(I)]^+[di-iodide-silver]^−] | 3.22 ± 1.2 | > 200 | > 200 |  |
|  |  |  | C[n+]1ccn(CC(O)c2ccccc2)[c]1[Au-][c]1n(CC(O)c2ccccc2)cc[n+]1C.[Cl][Au-][Cl] (racemic) [AuL3] | 3.43 ± 1 |  |  |  |
| 18.2 ± 0.5 | 44.5 ± 0.9 | 54.9 ± 1 | OCc1ccc(-n2cc[n+](CC(O)c3ccccc3)[c]2[Au-][Br])cc1 (racemic) [AuL5] | 31.7 ± 0.8 | > 200 | > 200 |  |
| > 200 | > 200 | > 200 | OCc1ccc(-n2ccn(CC(O)c3ccccc3)[c]2=[Ag][Br])cc1 (stereo not drawn) [AgL5] | > 200 | > 200 | > 200 |  |
|  |  |  | OCc1ccc(-[n+]2ccn(CC(O)c3ccccc3)c2)cc1 (stereo not drawn) [L5, N-[4-(hydroxymethyl)phenyl]-N’-[(2-hydroxy-2-phenyl)ethyl]-imidazolium bromide] |  |  |  | IC50 ([1]; Homo sapiens, MCF7, 72 h): > 200 µM; IC50 ([2]; Homo sapiens, MDA-MB-231, 72 h): > 200 µM; IC50 ([3]; Homo sapiens, HeLa): > 200 µM; IC50 ([4]; Homo sapiens, Ishikawa): > 200 µM; IC50 ([5]; Homo sapiens, MCF-10A): > 200 µM; IC50 ([6]; Homo sapiens, HEK293): > 200 µM |
|  |  |  | OC(Cn1cc[n+](CC(O)c2ccccc2)c1)c1ccccc1 (stereo not drawn) [L6] |  |  |  | IC50 ([1]; Homo sapiens, MCF7, 72 h): > 200 µM; IC50 ([2]; Homo sapiens, MDA-MB-231, 72 h): > 200 µM; IC50 ([3]; Homo sapiens, HeLa): > 200 µM; IC50 ([4]; Homo sapiens, Ishikawa): > 200 µM; IC50 ([5]; Homo sapiens, MCF-10A): > 200 µM; IC50 ([6]; Homo sapiens, HEK293): > 200 µM |
|  |  |  | O=c1c(O)c(-c2ccc(O)c(O)c2)oc2cc(O)cc(O)c12 [Quercetin, reference compound] |  |  |  | increase of the Hek-293 cells viability vs AuL7 alone ([6]; pre-treatment for 4 h with Quercetin (at 50 μM), then AuL7): about 1.5 fold |
|  |  |  | CC1=CC(=O)c2ccccc2C1=O [menadione, reference compound] |  |  |  | ROS production (DCF green fluorescence) (MDA-MB-231 cells [7]): increased ROS production |
|  |  |  | CC(=O)O[C@H]1C(=O)[C@@]2(C)[C@H]([C@H](OC(=O)c3ccccc3)[C@]3(O)C[C@H](OC(=O)[C@H](O)[C@@H](NC(=O)c4ccccc4)c4ccccc4)C(C)=C1C3(C)C)[C@]1(OC(C)=O)CO[C@@H]1C[C@@H]2O [paclitaxel] |  |  |  | final optical density value at 350 nm (OD350) (tubulin; 37 °C): about 0.51; effect on microtubule network, MDA-MB-231 (MDA-MB-231 cells [8]): microtubules non-reversible polymerization; effect on microtubule network, HeLa (HeLa cells): microtubules non-reversible polymerization |
|  |  |  | CC[C@]1(O)C[C@@H]2CN(CCc3c([nH]c4ccccc34)[C@@](C(=O)OC)(c3cc4c(cc3OC)N(C)[C@H]3[C@@](O)(C(=O)OC)[C@H](OC(C)=O)[C@]5(CC)C=CCN6CC[C@]43[C@@H]65)C2)C1 [vinblastine, reference compound] |  |  |  | effect on tubulin-polymerization reaction (tubulin): tubulin-polymerization inhibition; time to reach the steady state of polymerization curve (tubulin; 37 °C): about 40 min; final optical density value at 350 nm (OD350) (tubulin; 37 °C): less than the half of the vehicle reaction; effect on microtubule network, MDA-MB-231 (MDA-MB-231 cells [8]): microtubules disorganization; effect on microtubule network, HeLa (HeLa cells): microtubules disorganization |

| Compound | IC50 ([1]; 72 h) [µM] | IC50 [3] [µM] | IC50 [4] [µM] | IC50 ([2]; 72 h) [µM] | IC50 [5] [µM] | IC50 [6] [µM] | other results |
| --- | --- | --- | --- | --- | --- | --- | --- |
| OC(Cn1ccn(CC(O)c2ccccc2)[c]1=[AuH]=[c]1n(CC(O)c2ccccc2)ccn1CC(O)c1ccccc1)c1ccccc1.[Cl][AuH][Cl] (stereo not drawn) [AuL6] | 9.38 ± 0.2 | 98.6 ± 1.2 | 12.6 ± 0.3 | 53.7 ± 0.7 | 158.8 ± 1 | > 200 |  |
| N.N.[Cl][Pt][Cl] [Cis-platin, Cisplatin, reference compound] | 35.8 ± 1.3 | 15.7 ± 1.1 | 15.1 ± 0.8 | 28.7 ± 1 | 81.3 ± 1.2 | 16.8 ± 0.4 |  |
| C[n+]1cn(CC(O)c2ccccc2)c(Cl)c1Cl (stereo not drawn) [L7] | > 200 | > 200 | > 200 | > 200 | > 200 | > 200 |  |

Source: PMC7281280, “Is the Way to Fight Cancer Paved with Gold? Metal-Based Carbene Complexes with Multiple and Fascinating Biological Features” (Pharmaceuticals, 2020)
